Laboratory results published in US11555009B2, “2-(substituted benzene matrix) aromatic formate FTO inhibitor, preparation method therefor, and applications thereof” (SHANGHAI INSTITUTE OF MATERIA MEDICA, CHINESE ACADEMY OF …, priority 2017, dated 2023).

Assays:
FTO = FTO (Homo sapiens (Human), UniProt Q9C0B1); experiment: FTO enzyme inhibition (m6A dsDNA substrate, DpnII digestion, gel readout); format: biochemical; conditions: for inhibition at 50 µM: read-out: Inhibition rate; for Inhibition rate: in vitro inhibition rate on FTO, compound at 50 μM
Procedure: High purity FTO protein was obtained by nickel column affinity chromatography purification.
After incubation at room temperature for 2 hrs, the reaction system was then slowly heated to 65° C. to inactivate, and 1 μM 39 nt of antisense strand DNA was added to anneal, thereby forming double strands. […] After Gel-Red dyeing, photos were taken with gel imaging system. The obtained band was subjected to gray scale reading to obtain inhibition rate.

[1] = system: human small cell lung cancer cell lines (SCLC-21H); experiment: MTS cytotoxicity on SCLC-21H cells; format: cell-based; conditions: 50 μM, 72 h; for inhibition at 50 µM: Homo sapiens, SCLC-21H, read-out: Inhibition rate (human small cell lung cancer SCLC-21H)
Procedure: (§1) The following was a study of the cytotoxicity study of compound of 2-(substituted phenylhetero)aromatic formic acid of formula (I) and its derivatives as FTO inhibitors on solid tumors including human small cell lung cancer cell lines (SCLC-21H), human bone marrow rhabdomyosarcoma cell line (RH30) and pancreatic cancer cell Line (KP3):
(§2) SCLC-21H, RH30 and KP3 solid tumor cell lines were cultivated separately, and seeded at 5000 cells per well in 96 well plates. The cells were cultured until the cells were adherent, and different compounds were added and the cultivation was continued for 72 hours. 10 uL of MTS solution was directly added and the mixture was incubated for 4 h, and the absorbance was measured at 490 nm. The inhibition rate was calculated by using the DMSO group as a control.

[2] = system: human bone marrow rhabdomyosarcoma cell line (RH30); experiment: MTS cytotoxicity on RH30 cells; format: cell-based; conditions: 50 μM, 72 h; for inhibition at 50 µM: Homo sapiens, Rh30, read-out: Inhibition rate (human bone marrow rhabdomyosarcoma cell RH30)
Procedure: as §1, §2

FTO, sequence (Q9C0B1 whole entry): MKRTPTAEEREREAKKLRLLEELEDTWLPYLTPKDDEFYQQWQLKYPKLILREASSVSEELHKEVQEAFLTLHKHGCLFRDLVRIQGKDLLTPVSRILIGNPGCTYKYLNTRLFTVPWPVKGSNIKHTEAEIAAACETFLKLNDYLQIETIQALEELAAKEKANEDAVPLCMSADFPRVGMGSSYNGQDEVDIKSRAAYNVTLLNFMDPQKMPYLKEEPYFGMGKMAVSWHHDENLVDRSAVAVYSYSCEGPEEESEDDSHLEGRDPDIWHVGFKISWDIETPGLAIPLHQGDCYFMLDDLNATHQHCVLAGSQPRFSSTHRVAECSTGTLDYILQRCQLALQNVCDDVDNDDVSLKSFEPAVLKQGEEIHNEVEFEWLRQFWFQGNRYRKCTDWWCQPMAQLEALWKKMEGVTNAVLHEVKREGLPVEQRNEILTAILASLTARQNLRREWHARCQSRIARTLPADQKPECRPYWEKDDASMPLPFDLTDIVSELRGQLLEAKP

| SMILES | Inhibition rate (human small cell lung cancer SCLC-21H) [1] | Inhibition rate (human bone marrow rhabdomyosarcoma cell RH30) [2] | further results |
| --- | --- | --- | --- |
| O=C(O)c1ccccc1Nc1c(Cl)cc(-c2cc(O)cc(O)c2)cc1Cl [Compound 1] |  |  | IC50 (FTO): 700 nM; inhibition at 50 µM (FTO): 85% |
| O=C(O)c1ccccc1Nc1c(Cl)cc(-c2ccn[nH]2)cc1Cl [Compound 2] |  |  | IC50 (FTO): < 5000 nM; inhibition at 50 µM (FTO): 80% |
| O=C(O)c1ccc(-c2cc(Cl)c(Nc3ccccc3C(=O)O)c(Cl)c2)s1 [Compound 10] |  |  | IC50 (FTO): < 1000 nM |
| Cc1noc(C)c1-c1cc(Cl)c(Nc2ccccc2C(=O)O)c(Cl)c1 [Compound 15, 2-((2,6-dichloro-4-(3,5-dimethylisoxazole)phenyl)amino)benzoic acid] |  |  | inhibition at 50 µM [1]: 43%; inhibition at 50 µM [2]: 49% |
| Cc1n[nH]c(C)c1-c1cc(Cl)c(Nc2ccccc2C(=O)O)c(Cl)c1 [Compound 17] |  |  | inhibition at 50 µM [1]: 25%; inhibition at 50 µM [2]: 39% |
| Cc1noc(C)c1-c1cc(Cl)c(Nc2ccccc2-c2nn[nH]n2)c(Cl)c1 [Compound 26] | 17% | 36% |  |
| Cc1noc(C)c1-c1cc(Cl)c(Nc2ccccc2C(=O)O)c(Cl)c1 [Compound 28] | 32% | 21% |  |
| Cc1noc(C)c1-c1cc(Cl)c(Nc2ccccc2C(=O)O)c(Cl)c1 [Compound 29] | 46% | 47% |  |
| Cc1noc(C)c1-c1cc(Cl)c(Nc2ccccc2C(=O)O)c(Cl)c1 [Compound 30] | 33% | 32% |  |
| O=C(O)c1ccccc1Nc1c(F)cc(-c2cn[nH]c2)cc1F [Compound 36] |  |  | Inhibition rate (FTO): 28% |
| Cc1noc(C)c1-c1cc(O)c(Nc2ccccc2C(=O)O)c(O)c1 [Compound 40] |  |  | Inhibition rate (FTO): 100% |
| COc1cc(-c2cn[nH]c2)cc(OC)c1Nc1ccccc1C(=O)O [Compound 41] | 35% | 28% |  |
| COc1cc(-c2c(C)noc2C)cc(OC)c1Nc1ccccc1C(=O)O [Compound 43] | 44% | 25% |  |
| Cc1cc(-c2c(C)noc2C)c(C)cc1Nc1ccccc1C(=O)O [Compound 48] | 63% | 51% |  |
| O=C(O)c1ccccc1Nc1ccc(-c2ccncc2)cc1O [Compound 52] |  |  | Inhibition rate (FTO): 90% |
| O=C(O)c1ccccc1Nc1c(Cl)cc(N2CCOCC2)cc1Cl [Compound 55] |  |  | IC50 (FTO): < 5000 nM; Inhibition rate (FTO): 100% |
| O=C(O)c1ccccc1Nc1c(Cl)cc(C2CCNCC2)cc1Cl [Compound 56] |  |  | Inhibition rate (FTO): 45% |
| O=C(O)c1cccnc1Nc1c(Cl)cc(-c2ccccc2)cc1Cl [Compound 60] | 71% | 72% |  |
| COc1cc(OC)cc(-c2cc(Cl)c(Nc3ncccc3C(=O)O)c(Cl)c2)c1 [Compound 61] | 44% | 52% |  |
| O=C(O)c1nccnc1Nc1c(Cl)cc(-c2ccncc2)cc1Cl [Compound 66] | 48% | 53% |  |
| Cc1n[nH]cc1-c1cc(Cl)c(Nc2nccnc2C(=O)O)c(Cl)c1 [Compound 67] | 33% | 41% |  |
| O=C(O)c1nccnc1Nc1c(Cl)cc(-c2ccoc2)cc1Cl [Compound 68] | 68% | 56% |  |
| Cc1noc(C)c1-c1cc(Cl)c(Nc2ccc(F)cc2C(=O)O)c(Cl)c1 [Compound 69] | 50% | 29% |  |
| O=C(O)c1cc(F)ccc1Nc1c(Cl)cc(-c2ccc(F)cc2)cc1Cl [Compound 72] | 64% | 37% |  |
